Data on 2 compounds can be found in paper PMC3342997 (HIV Medicine, 2011).

What is called IC90 is the concentration needed for an effect of 90%. As usually defined, the Vd/F is the volume of distribution divided by bioavailability. As a reminder, the half-life is the time in which the quantity being followed falls by half. Low values mean fast loss, high ones slow loss. What is called AUC is the area under the concentration-time curve, a measure of exposure. As usually defined, the CL/F is the apparent clearance, not corrected for the fraction that reaches the circulation.

Structures are written as SMILES. In brackets after ≈: the same amount, converted by molar mass. Several values for one entry are separate records, joined by “and”; a condition that tells them apart may be missing. Equal values may be shown once. Read-outs that look alike come from different tables or passages of the source.

The conditions of series [1]: for Women with detectable emtricitabine concentrations at pre-dose sampling: limit of detection 0.0118 mg/L.
For series [2] the following is noted: female, human, in vivo.
In series [3] the test system is HIV-1. The settings on record: combination antiretroviral regimen.
In series [4] the test system is wild-type HIV-1. The settings on record: mean in vitro, wild-type HIV-1 viral replication; ref not given; cited from earlier work.
The nature of series [5]: clinical. The settings on record: female, human, 200 mg; for Vd/F / half-life: in vivo; for AUC: 200 mg once daily, steady state, AUC0-24, noncompartmental.
Series [6] can be described thus: clinical. The settings on record: female, human, in vivo, 200 mg.
The conditions of series [7]: cited from earlier work.
The conditions of series [8]: in vivo; cited from earlier work.
Where [9] appears, read: postpartum (n = 22), geometric least-squares mean (90% CI).
[10] abbreviates: third trimester (n = 26), geometric least-squares mean (90% CI).

Regarding `Nc1nc(=O)n([C@@H]2CS[C@H](CO)O2)cc1F` [emtricitabine], the results for the “Women with detectable emtricitabine concentrations at pre-dose sampling” value in series [1] (antepartum) and in series [1] (postpartum) were “All 26 women” and 18 of 22, respectively. Further, the “Subjects achieving target AUC ≥7.0 mg h/L” value is 58% in [1] (during pregnancy, 15 of 26 subjects, 80% CI 45–70%) and 95% in series [1] (postpartum, 21 of 22 subjects, 80% CI 89–100%). Further, the “C24 (24 hour post dose concentration)” value is listed as 0.085 mg/L in series [1] (setting [9]); 0.085 (0.07–0.1) mg/L in [1] (postpartum (n = 22), geometric least-squares mean (90% CI), listed as Emtricitabine); 0.058 mg/L in [1] (setting [10]). The Cmax in series [1] (setting [9]) was 1.4 (1.3–1.7) mg/L; in [5] (plasma, oral), 1.4 µg/mL; in series [7] (in vivo) it was 1.8 ± 0.7 µg/mL. In addition, the tmax in series [1] (postpartum (n = 22), median (range)) was 2.0 (min–max: 1–6) hours; in series [5] (plasma, oral) it was 2 h. Besides, the “Magnitude of the AUC decrease during pregnancy” value in [1] (pregnancy compared with postpartum) is on record as “less than 20%”. In addition, the “Maternal plasma concentration at delivery” value in series [2] amounted to 0.15 mg/L. Moreover, the “Women with viral load <400 HIV-1 RNA copies/mL” value is 15 of 19 and 15 in series [3] (postpartum); 24 of 26 in series [3] (third trimester). Besides, under “human, in vivo”, the “Subjects with grade 3 adverse events of elevated bilirubin” value was “three subjects”. Besides, for the setting “human, in vivo”, the Tolerability result is given as “well tolerated”. Also, the “Congenital anomalies in infants” value (lachrymal duct stenosis, grade 3 vesicoureteral reflux, deemed not related to the antiretroviral regimen) is “two infants”. The “IC50 (drug concentration that suppresses viral replication by half)” value in [4] is listed as 0.004 mg/L (≈ 0.0162 µM). The IC90 in [4] is given as 0.051 mg/L (≈ 0.206 µM). For the same compound, the Vd/F worked out at 301 L in series [5] (setting [9]) and 334 L in series [5] (setting [10]). In addition, the half-life in series [5] (t1/2, postpartum (n = 22), geometric least-squares mean (90% CI)) was 10.1 h; in series [5] (t1/2, third trimester (n = 26), geometric least-squares mean (90% CI)), 9.3 h. Besides, the AUC in [5] (plasma, oral, postpartum (n = 22), geometric least-squares mean (90% CI)) is 9.7 µg·h/mL; in series [5] (plasma, oral, third trimester (n = 26), geometric least-squares mean (90% CI)), 8 µg·h/mL; in [7] (in vivo, 200 mg) it was 10 µg·h/mL. For the same compound, the concentration at 24 h in series [5] (plasma, oral, C24 (24 hour post dose concentration), postpartum (n = 22), geometric least-squares mean (90% CI)) is 0.085 µg/mL; in [5] (plasma, oral, C24 (24 hour post dose concentration), third trimester (n = 26), geometric least-squares mean (90% CI)), 0.058 µg/mL; in series [5] (plasma, oral, Lowest C24, postpartum), 0.07 µg/mL. Besides, in series [6], the Kp turned out to be 1.2. In series [7] (in vivo), the Minimum adult concentration was 0.077 mg/L. Further, the Protein binding entry in series [7] (in vivo) is recorded as “low protein binding”. In series [7] (nonpregnant adults, 200 mg once daily), the CL/F is reported as 18.1 L/h.

As to `Cc1ccnc2c1NC(=O)c1cccnc1N2C1CC1` [nevirapine], the “Reduction of exposure during pregnancy” value in series [8] is on record as 10–20%.
